Counter-ions that a name gives are not always drawn.
Key:
Type in all cases: biochemical
[1] = target: T1, AKT3 (Homo sapiens, UniProt Q9Y243); experiment: AKT Kinase Assay (IMAP fluorescent polarisation) vs AKT3; details: activated AKT3, FAM Crosstide substrate
T1 construct: purchased SignalChem
Outline: (§1)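 IC50 values came from non-linear regression of % inhibition relative to vehicle, measured by IMAP fluorescence polarisation (485/528 nm) after a 1 h room-temperature reaction of FAM-Crosstide and ATP. Each activated isoform was first exposed to compound for 45 min across fourteen half-log doses.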

[2] = target: T2, AKT1 (Homo sapiens, UniProt P31749); experiment: AKT Kinase Assay (IMAP fluorescent polarisation) vs AKT1; details: activated AKT1, FAM Crosstide substrate
T2 construct: purchased SignalChem
T2 sequence (P31749 whole entry): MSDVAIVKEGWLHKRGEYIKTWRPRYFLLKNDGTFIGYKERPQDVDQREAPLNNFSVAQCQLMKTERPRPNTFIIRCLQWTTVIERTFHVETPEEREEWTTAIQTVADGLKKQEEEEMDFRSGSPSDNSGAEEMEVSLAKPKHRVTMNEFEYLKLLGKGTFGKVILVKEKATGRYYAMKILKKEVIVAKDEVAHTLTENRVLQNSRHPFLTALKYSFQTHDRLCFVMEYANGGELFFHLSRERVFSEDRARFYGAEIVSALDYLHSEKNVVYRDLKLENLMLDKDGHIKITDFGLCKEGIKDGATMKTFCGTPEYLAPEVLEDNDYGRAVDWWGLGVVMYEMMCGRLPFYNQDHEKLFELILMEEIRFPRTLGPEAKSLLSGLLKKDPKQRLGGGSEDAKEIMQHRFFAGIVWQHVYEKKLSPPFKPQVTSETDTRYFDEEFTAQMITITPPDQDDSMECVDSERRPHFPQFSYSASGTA
Outline: as §1

[3] = target: T3, AKT2 (Homo sapiens, UniProt P31751); experiment: AKT Kinase Assay (IMAP fluorescent polarisation) vs AKT2; details: activated AKT2, FAM Crosstide substrate
T3 construct: purchased SignalChem
T3 sequence (P31751 whole entry): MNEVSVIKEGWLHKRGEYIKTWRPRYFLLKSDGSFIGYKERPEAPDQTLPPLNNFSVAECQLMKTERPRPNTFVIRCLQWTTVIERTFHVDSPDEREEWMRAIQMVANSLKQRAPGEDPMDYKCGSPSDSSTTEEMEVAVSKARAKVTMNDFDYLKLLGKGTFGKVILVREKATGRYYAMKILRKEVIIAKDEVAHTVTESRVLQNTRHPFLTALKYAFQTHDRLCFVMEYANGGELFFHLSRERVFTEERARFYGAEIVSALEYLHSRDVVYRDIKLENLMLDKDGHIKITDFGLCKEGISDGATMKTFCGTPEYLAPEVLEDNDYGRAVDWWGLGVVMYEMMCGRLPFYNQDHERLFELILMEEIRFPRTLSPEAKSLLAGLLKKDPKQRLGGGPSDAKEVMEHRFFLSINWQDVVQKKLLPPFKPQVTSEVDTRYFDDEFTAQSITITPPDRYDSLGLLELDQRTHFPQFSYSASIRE
Outline: as §1

T1 sequence (Q9Y243 whole entry): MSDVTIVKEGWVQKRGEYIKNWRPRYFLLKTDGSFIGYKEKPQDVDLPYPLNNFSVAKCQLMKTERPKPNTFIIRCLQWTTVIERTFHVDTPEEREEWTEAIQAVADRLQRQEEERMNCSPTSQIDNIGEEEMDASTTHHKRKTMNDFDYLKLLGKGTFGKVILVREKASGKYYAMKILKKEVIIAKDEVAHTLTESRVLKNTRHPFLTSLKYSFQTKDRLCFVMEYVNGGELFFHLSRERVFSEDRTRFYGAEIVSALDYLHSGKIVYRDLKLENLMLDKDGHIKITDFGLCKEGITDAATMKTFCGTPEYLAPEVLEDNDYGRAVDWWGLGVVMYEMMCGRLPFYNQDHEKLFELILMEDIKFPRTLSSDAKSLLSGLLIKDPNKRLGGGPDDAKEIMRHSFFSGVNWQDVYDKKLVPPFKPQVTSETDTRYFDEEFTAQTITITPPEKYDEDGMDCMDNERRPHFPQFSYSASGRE

SMILES | IC50 [1] [nM] | IC50 [2] [nM] | IC50 [3] [nM]
COc1ccc2c(=O)c(-c3ccc(C4(N)CCC4)cc3)c(-c3ccccc3)oc2c1Br [Example 9, 3-[4-(1-Amino-cyclobutyl)-phenyl]-8-bromo-7-methoxy-2-phenyl-chromen-4-one] | 1000 to 10000 | ≤ 1000 | ≤ 1000
NC1(c2ccc(-c3c(-c4ccccc4)oc4c5c(ccc4c3=O)OCC(=O)N5)cc2)CCC1 [Example 109, 8-(4-(1-aminocyclobutyl)phenyl)-9-phenylchromeno[7,8-b][1.4]oxazine-2,7(1H,3H)-dione] | 1000 to 10000 | ≤ 1000 | 1000 to 10000
NC1(c2ccc(-c3c(-c4ccccc4)oc4c(ccc5nc(C(F)(F)F)[nH]c54)c3=O)cc2)CCC1 [Example 94, 7-[4-(1-Amino-cyclobutyl)-phenyl]-8-Phenyl-2-trifluoromethyl-1H-chromeno[7,8-d]imidazol-6-one] | > 10000 | ≤ 1000 | 1000 to 10000
NC1(c2ccc(-c3c(-c4ccccc4)oc4ccc(-n5ccnc5)cc4c3=O)cc2)CCC1 [Example 22, 3-[4-(1-Amino-cyclobutyl)-phenyl]-6-imidazol-1-yl-2-phenyl-chromen-4-one] | > 10000 | 1000 to 10000 | 1000 to 10000
NC1(c2ccc(-c3c(-c4ccccc4)oc4c(-c5cn[nH]c5)cccc4c3=O)cc2)CCC1 [Example 52, 3-[4-(1-Amino-cyclobutyl)-phenyl]-2-phenyl-8-(1H-pyrazol-4-yl)-chromen-4-one hydrochloride] | ≤ 1000 | ≤ 1000 | ≤ 1000
Cn1nc2c3oc(-c4ccccc4)c(-c4ccc(C5(N)CCC5)cc4)c(=O)c3ccn2c1=O [Example 64, 7-[4-(1-Amino-cyclobutyl)-phenyl]-2-methyl-8-phenyl-2H-9-oxa-1,2,3a-triaza-cyclopenta[a]naphthalene-3,6-dione hydrochloride] | ≤ 1000 | ≤ 1000 | ≤ 1000
Cc1nn(C)c(C)c1-c1nccc2c(=O)c(-c3ccc(C4(N)CCC4)cc3)c(-c3ccccc3)oc12 [Example 115, 3-(4-(1-aminocyclobutyl)phenyl)-2-phenyl-8-(1,3,5-trimethyl-1H-pyrazol-4-yl)-4H-pyrano[2,3-c]pyridin-4-one] | > 10000 | > 10000 | 1000 to 10000
NC1(c2ccc(-c3c(-c4ccccc4)oc4cc(F)ccc4c3=O)cc2)CCC1 [Example 37, 3-[4-(1-Amino-cyclobutyl)-phenyl]-7-fluoro-2-phenyl-chromen-4-one hydrochloride] | 1000 to 10000 | ≤ 1000 | 1000 to 10000
NC1(c2ccc(-c3c(-c4ccccc4)oc4cc5c(cc4c3=O)OCCO5)cc2)CCC1 [Example 8, 7-[4-(1-Amino-cyclobutyl)-phenyl]-6-Phenyl-2,3-dihydro-1,4,5-trioxa-anthracen-8-one] | > 10000 | 1000 to 10000 | 1000 to 10000
Cc1c(-c2nccc3c(=O)c(-c4ccc(C5(N)CCC5)cc4)c(-c4ccccc4)oc23)cnn1C [Example 116, 3-(4-(1-aminocyclobutyl)phenyl)-8-(1,5-dimethyl-1H-pyrazol-4-yl)-2-phenyl-4H-pyrano[2,3-c]pyridin-4-one] | 1000 to 10000 | ≤ 1000 | 1000 to 10000

Next, values leading:

IC50 [1] [nM] | IC50 [2] [nM] | IC50 [3] [nM] | SMILES
1000 to 10000 | 1000 to 10000 | ≤ 1000 | COc1cc2oc(-c3ccccc3)c(-c3ccc(C4(N)CCC4)cc3)c(=O)c2cc1OC [Example 15, 3-[4-(1-Amino-cyclobutyl)-phenyl]-6,7-dimethoxy-2-phenyl-chromen-4-one]
1000 to 10000 | > 10000 | 1000 to 10000 | COc1cc2c(=O)c(-c3ccc(C4(N)CCC4)cc3)c(-c3ccccc3)oc2cc1C#N [Example 30, 3-[4-(1-Amino-cyclobutyl)-phenyl]-6-methoxy-4-oxo-2-phenyl-4H-chromene-7-carbonitrile]
1000 to 10000 | ≤ 1000 | 1000 to 10000 | NC1(c2ccc(-c3c(-c4ccccc4)oc4c(-c5c[nH]nc5C(F)(F)F)cccc4c3=O)cc2)CCC1 [Example 76, 3-[4-(1-Amino-cyclobutyl)-phenyl]-2-phenyl-8-(3-trifluoromethyl-1H-pyrazol-4-yl)-chromen-4-one]
≤ 1000 | ≤ 1000 | ≤ 1000 | NC1(c2ccc(-c3c(-c4ccccc4)oc4c(Br)cccc4c3=O)cc2)CCC1 [Example 51, 3-[4-(1-Amino-cyclobutyl)-phenyl]-8-bromo-2-phenyl-chromen-4-one]
> 10000 | > 10000 | 1000 to 10000 | Cn1ccc2c(=O)c(-c3ccc(C4(N)CCC4)cc3)c(-c3ccccc3)oc2c1=O [Example 41, 3-[4-(1-Amino-cyclobutyl)-phenyl]-7-methyl-2-phenyl-7H-pyrano[2,3-c]pyridine-4,8-dione hydrochloride]
1000 to 10000 | ≤ 1000 | ≤ 1000 | CN1C(=O)COc2c1ccc1c(=O)c(-c3ccc(C4(N)CCC4)cc3)c(-c3ccccc3)oc21 [Example 112, 8-(4-(1-aminocyclobutyl)phenyl)-4-methyl-9-phenylchromeno[8,7-b][1,4]oxazine-3,7(2H,4H)-dione]
1000 to 10000 | ≤ 1000 | ≤ 1000 | Cn1ncc2c3oc(-c4ccccc4)c(-c4ccc(C5(N)CCC5)cc4)c(=O)c3ccc21 [Example 60, 3-[4-(1-Amino-cyclobutyl)-phenyl]-7-methyl-2-phenyl-7H-pyrano[2,3-e]indazol-4-one]
≤ 1000 | ≤ 1000 | ≤ 1000 | NC1(c2ccc(-c3c(-c4ccccc4)oc4c(ccc5[nH]ncc54)c3=O)cc2)CCC1 [Example 33, 3-[4-(1-Amino-cyclobutyl)-phenyl]-2-phenyl-7H-pyrano[2,3-c]indazol-4-one]
1000 to 10000 | 1000 to 10000 | 1000 to 10000 | NC1(c2ccc(-c3c(-c4ccccc4)oc4ccc(Br)cc4c3=O)cc2)CCC1 [Example 19, 3-[4-(1-Amino-cyclobutyl)-phenyl]-6-bromo-2-phenyl-chromen-4-one]
1000 to 10000 | > 10000 | 1000 to 10000 | COCCn1ccc2c(=O)c(-c3ccc(C4(N)CCC4)cc3)c(-c3ccccc3)oc2c1=O [Example 31, 3-[4-(1-Amino-cyclobutyl)-phenyl]-7-(2-methoxy-ethyl)-2-phenyl-7H-pyrano[2,3-c]pyridine-4,8-dione]
≤ 1000 | ≤ 1000 | ≤ 1000 | Cn1cnc2ccc3c(=O)c(-c4ccc(C5(N)CCC5)cc4)c(-c4ccccc4)oc3c21 [Example 96, 7-[4-(1-Amino-cyclobutyl)-phenyl]-1-methyl-8-phenyl-1H-chromeno[7,8-d]imidazol-6-one]
1000 to 10000 | 1000 to 10000 | 1000 to 10000 | NC1(c2ccc(C3=C(c4ccccc4)c4ccccc4C3=O)cc2)CCC1 [Example 48, 2-(4-(1-aminocyclobutyl)phenyl)-3-phenyl-1H-inden-1-one hydrochloride]
≤ 1000 | ≤ 1000 | ≤ 1000 | NC1(c2ccc(-c3c(-c4ccccc4)oc4c(ccn5c(=O)[nH]nc45)c3=O)cc2)CCC1 [Example 63, 7-[4-(1-Amino-cyclobutyl)-phenyl]-8-phenyl-2H-9-oxa-1,2,3a-triaza-cyclopenta[a]naphthalene-3,6-dione hydrochloride]

From patent publication US8546376B2, “Pharmaceutical compounds” (Almac Discovery Limited, priority 2009, dated 2013)
